# Measured values reported in ChEMBL document CHEMBL5137086, “Discovery of 1-(Hetero)aryl-β-carboline Derivatives as IDO1/TDO Dual Inhibitors with Antidepressant Activity” (J Med Chem, 2022).
# Columns and labels:
# [1] = target: T1, Tryptophan 2,3-dioxygenase (Homo sapiens, UniProt P48775); assay: Inhibition of TDO (unknown origin) assessed as reduction in N-formylkynurenine formation using L-tryptophan as substrate incubated for 75 mins by UV absorbance based analysis
# Target sequence in this assay (P48775 whole entry): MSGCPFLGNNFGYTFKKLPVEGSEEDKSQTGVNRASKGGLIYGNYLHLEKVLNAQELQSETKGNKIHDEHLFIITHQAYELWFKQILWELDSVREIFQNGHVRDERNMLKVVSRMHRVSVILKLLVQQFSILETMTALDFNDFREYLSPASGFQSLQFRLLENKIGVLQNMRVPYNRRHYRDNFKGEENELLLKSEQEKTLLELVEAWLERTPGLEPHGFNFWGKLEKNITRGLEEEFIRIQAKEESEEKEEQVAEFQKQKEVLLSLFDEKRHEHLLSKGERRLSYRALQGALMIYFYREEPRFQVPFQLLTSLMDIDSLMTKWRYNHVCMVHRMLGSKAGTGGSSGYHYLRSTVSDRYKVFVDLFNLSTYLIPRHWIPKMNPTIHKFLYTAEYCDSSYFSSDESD
# [2] = target: T1, Tryptophan 2,3-dioxygenase; assay: Inhibition of TDO (unknown origin) assessed as reduction in N-formylkynurenine formation using L-tryptophan as substrate at 50 uM incubated for 75 mins by UV absorbance based analysis relative to control
# Target sequence in this assay (P48775 whole entry, looked up): as the sequence (P48775 whole entry) above
# [3] = target: T2, Indoleamine 2,3-dioxygenase 1 (Homo sapiens, UniProt P14902); assay: Inhibition of IDO1 (unknown origin) assessed as reduction in kynurenine production using L-tryptophan as substrate incubated for 1 hr by absorbance based microplate reader analysis
# Target sequence in this assay (P14902 whole entry): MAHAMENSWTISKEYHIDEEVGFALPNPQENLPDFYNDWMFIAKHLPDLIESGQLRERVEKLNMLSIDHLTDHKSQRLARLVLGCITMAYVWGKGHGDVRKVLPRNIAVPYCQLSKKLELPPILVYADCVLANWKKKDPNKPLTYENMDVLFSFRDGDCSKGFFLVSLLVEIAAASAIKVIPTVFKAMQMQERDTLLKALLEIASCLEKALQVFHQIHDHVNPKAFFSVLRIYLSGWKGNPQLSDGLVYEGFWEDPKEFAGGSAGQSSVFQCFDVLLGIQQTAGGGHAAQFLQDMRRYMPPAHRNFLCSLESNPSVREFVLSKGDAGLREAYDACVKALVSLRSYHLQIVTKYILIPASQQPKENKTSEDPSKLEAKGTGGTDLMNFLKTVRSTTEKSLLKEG
# [4] = target: T2, Indoleamine 2,3-dioxygenase 1; assay: Inhibition of IDO1 (unknown origin) assessed as reduction in kynurenine production using L-tryptophan as substrate at 50 uM incubated for 1 hr by absorbance based microplate reader analysis relative to control
# Target sequence in this assay (P14902 whole entry, looked up): as the sequence (P14902 whole entry) above
Structure (SMILES),IC50 [1] [µM],inhibition [2] [%],IC50 [3] [µM],inhibition [4] [%]
c1csc(-c2nccc3c2[nH]c2ccccc23)c1,10.8,82,> 50,61
FC(F)(F)c1ccc(-c2nccc3c2[nH]c2ccccc23)cc1,–,5,–,13
c1ccc2c(c1)[nH]c1c(-c3ccsc3)nccc12,0.81,94,–,34
c1cncc(-c2nccc3c2[nH]c2ccccc23)c1,2.14,89,–,26
N#Cc1ccc(-c2nccc3c2[nH]c2ccccc23)cc1,12,75,> 50,53
c1coc(-c2nccc3c2[nH]c2ccccc23)c1,–,37,–,33
N#Cc1cccc(-c2nccc3c2[nH]c2ccccc23)c1,15.3,78,> 50,66
Cc1nccc2c1[nH]c1ccccc12 [HARMAN],6.31,85,–,34
FC(F)(F)c1cccc(-c2nccc3c2[nH]c2ccccc23)c1,5.39,88,–,9
O=[N+]([O-])c1cccc(-c2nccc3c2[nH]c2ccccc23)c1,–,6,8.28,96
Oc1ccc(-c2nccc3c2[nH]c2ccccc23)cc1,–,4,–,24
Brc1cccc(-c2nccc3c2[nH]c2ccccc23)c1,20.3,65,4.95,93
Clc1ccc(-c2nccc3c2[nH]c2ccccc23)cc1,8.29,81,7.58,86
Fc1ccc(-c2nccc3c2[nH]c2ccccc23)cc1,–,3,–,27
Clc1cc(Cl)cc(-c2nccc3c2[nH]c2ccccc23)c1,–,8,16.5,75
c1ccc2c(c1)[nH]c1c(-c3cscn3)nccc12,–,4,–,3
Brc1ccc(-c2nccc3c2[nH]c2ccccc23)cc1,–,5,> 50,51
O=C1CC(c2c[nH]c3ccc(F)cc23)C(=O)N1 (stereo unspecified),–,–,–,92
Fc1cccc(-c2nccc3c2[nH]c2ccccc23)c1,10.9,86,–,28
c1ccc2c(c1)[nH]c1c(-c3ccoc3)nccc12,1.14,92,–,5
c1ccc2c(c1)[nH]c1c(-c3cc[nH]n3)nccc12,–,7,–,34
c1ccc(-c2nccc3c2[nH]c2ccccc23)cc1,7.24,86,–,7
c1ccc2c(c1)[nH]c1c(-c3cnn[nH]3)nccc12,19.5,77,13.9,91
Clc1cccc(-c2nccc3c2[nH]c2ccccc23)c1,13.4,88,> 50,55
c1ccc2c(c1)[nH]c1cnccc12 [NORHARMANE],1.2,86,–,48
O=[N+]([O-])c1ccc(-c2nccc3c2[nH]c2ccccc23)cc1,–,3,8.44,94
c1ccc2c(c1)[nH]c1c(-c3nccs3)nccc12,–,2,–,5
c1ccc2c(c1)[nH]c1c(-c3ccncc3)nccc12,–,36,–,46
c1ccc2c(c1)[nH]c1c(-c3ncc[nH]3)nccc12,–,4,–,26
Fc1cc(-c2nccc3c2[nH]c2ccccc23)ccc1Br,–,4,32.7,71
